How the values were obtained:
[1] = tested on: IL-4 production; experiment: Measurement of IL-4 production inhibiting ability (KLH-stimulated lymphocytes, ELISA); assay type: cell-based; conditions: lymph node lymphocytes of KLH-sensitized Balb/c mice, KLH 10 μg/mL, 3 days, IL-4 in supernatant by ELISA; for IC50: Mus musculus, Lymphocyte, 72 h, read-out: IC50 (concentrations at which IL-4 yields were inhibited by 50%)
Experimental: A 4 mg/mL solution of KLH (Keyhole Limpet Hemocyanin; product of Pierce Chemical Company) and Freund complete adjuvant FCA (Bacto Adjuvant Complete Freund; product of DIFCO) were mixed and emulsified at a volume ratio of 1:1. The resulting emulsion was subcutaneously injected at 200 μL/head to the foreleg paws and hind leg paws of Balb/c mice (female, 8 to 12 weeks old), whereby the mice were sensitized. About 7 days later, axillary and popliteal lymph nodes were excised. After the lymph nodes were washed in PBS, they were loosened between two slide glasses in RPMI medium which had been prepared by adding kanamycin and β-mercapto-ethanol to “RPMI 1640 Medium” (product of BRL) such that their final concentrations became 100 μg/mL and 100 μM, respectively, whereby a suspension of lymphocytes was prepared. The lymphocyte suspension was centrifuged twice at 1,000 rpm for 5 minutes, followed by suspension in the RPMI medium added with 10% FCS. The lymphocytes were spread at 4×10^5 lymphocytes/well over 96-well plates. Individual compounds or essential oils, which had been prepared at varied concentrations with 10% FCS-added RMPI medium, were added within a final concentration range of from 0.01 to 100 μg/mL. Subsequent to incubation at 37° C. for about 30 minutes in the presence of 5% CO2, KLH was added to give a final concentration of 10 μg/mL. After incubation at 37° C. for 3 days in the presence of 5% CO2, IL-4 in each supernatant was quantitated by ELISA.
For the ELISA quantitation, “Mice IL-4 ELISA Kit” (product of Amersham Corp.) was used. Following a protocol attached to the kit, the quantitation was conducted using recombinant IL-4 as a standard substance. IL-4 production inhibition rates of the individual compounds at the varied concentrations were calculated [100-(IL-4 yield when the sample was added/IL-4 yield in a control added only with the culture medium)×100]. From the IL-4 production inhibition rates, IC50 values (concentrations at which IL-4 yields were inhibited by 50%) were determined.

[2] = tested on: allergy to house dust mite antigen; experiment: Effects on allergy to house dust mite antigen (ear swelling); assay type: in vivo, Balb/c mice; conditions: for Swelling inhibition rate (%): 20 μL topically on ear, 24 h after challenge; for inhibitory effects for allergy to the house dust mite antigen (in words): concentrations of 0.1% and 1.0%, statistically significant at 1% or 5% significance level
Experimental: Tape stripping was applied 8 times with an adhesive cellophane tape (product of Nichiban Co., Ltd.) to shaved abdominal parts of Balb/c mice (female). The abdominal parts were coated with 50-μL portions of a house dust mite antigen, which had been obtained by dialyzing an allergen scratch extract “DANI” (product of Torii Pharmaceutical Co., Ltd.) and then concentrating the dialyzate ten-fold by ultrafiltration, so that the mice were sensitized. One, four, five and six days later, 20 μL portions of cedrol, cumin oil and cedarwood oil of concentrations shown in Table 2 (prepared by dissolving them in 70% ethanol solution) were topically applied onto one ears, respectively, and the same amount of the solvent control (70% ethanol solution) was applied at the others. Seven days after the sensitization, the mice were challenged on the dorsal ear lobe by subcutaneous injection of 10 μL of the same angiten solution. To measure ear swelling caused by nonspecific stimulation with the house dust mite antigen, 10-μL portions of the house dust mite antigen were subcutaneously injected to one ear lobes of unsensitized mice. Three and twenty hours after the stimulation, the ear lobes of the anesthetized mice were covered with pieces of paper towel soaked with purified water of 40° C., respectively. After that, 20 μL portions of the individual compounds were topically applied to one ears, respectively, while to the other, the same amount of the solvent control were applied. Twenty-four hours after stimulation, the thicknesses of the ears were measured by a thickness gauge, and differences from the thicknesses of the corresponding ears before the stimulation were recorded as ear swellings. Each ear swelling inhibition rate (%) was determined by the following formula: [ear swelling (solvent control)−ear swelling (sample)]/[ear swelling (solvent control)−ear swelling (nonspecific stimulation by the house dust mite antigen)]×100. Differences in swelling between the ear applied with the solvent control and the corresponding ears applied with the samples, respectively, were statistically analyzed by t-test, and any difference with significance level lower than 5% was considered statistically significant.

## CC(=O)C1=C(C)[C@@H]2C[C@@]3(C1)[C@H](C)CC[C@H]3C2(C)C [Acetylcedrene]
[1]
  IC50 (concentrations at which IL-4 yields were inhibited by 50%): 1.60 µg/mL

## C[C@@H]1CC[C@H]2C(C)(C)[C@H]3C[C@@]12CC[C@@]3(C)O [Cedrol]
[2]; Concentration 0.01 W/V %
  Swelling inhibition rate (%): 8%
[2]; Concentration 0.10 W/V %
  Swelling inhibition rate (%): 14%
[2]; Concentration 1.00 W/V %
  Swelling inhibition rate (%): 13%
[2]
  inhibitory effects for allergy to the house dust mite antigen (in words): marked effects
[1]
  IC50: 3 µg/mL

## CC(=O)O[C@]1(C)CC[C@@]23C[C@@H]1C(C)(C)[C@@H]2CC[C@H]3C [Cedryl acetate]
[1]
  IC50: 0.78 µg/mL

## CC(C)=CCCC(C)CCO (stereo not shown) [Citronellol]
[1]
  IC50: 37.3 µg/mL

## C=CCc1ccc(O)c(OC)c1 [Eugenol]
[1]
  IC50: 5.6 µg/mL

## CC(C)=CCCC(C)=CCCC(C)=CCO [Farnesol]
[1]
  IC50: 0.59 µg/mL

## C[C@@H]1CC[C@@H]2[C@@H]1[C@H]1[C@@H](CC[C@@]2(C)O)C1(C)C [Globulol]
[2]; Concentration 0.01 W/V %
  Swelling inhibition rate (%): 11%
[2]; Concentration 0.10 W/V %
  Swelling inhibition rate (%): 19%
[2]; Concentration 1.00 W/V %
  Swelling inhibition rate (%): 26%
[2]
  inhibitory effects for allergy to the house dust mite antigen (in words): marked effects
[1]
  IC50: 1.08 µg/mL

## C[C@H]1CC[C@@H](C(C)(C)O)CC2=C1CC[C@@H]2C [Guaiol]
[1]
  IC50 (concentrations at which IL-4 yields were inhibited by 50%): 0.68 µg/mL

## CC(C)c1cccc(=O)c(O)c1 [Hinokitiol]
[1]
  IC50: 0.1 µg/mL

## CC1CCC(C(C)C)C(O)C1 (stereo not shown) [Menthol]
[1]
  IC50: 19.6 µg/mL

## C[C@H]1CC[C@@]2(O)C(C)(C)[C@@H]3CC[C@@]2(C)[C@H]1C3 [Patchouli alcohol]
[1]
  IC50 (concentrations at which IL-4 yields were inhibited by 50%): 0.72 µg/mL

## CCOCC(O)COc1ccc(NC(=O)CC[S+](C)C)cc1 (stereo not shown) [Suplatast tosilate, reference compound]
[1]
  IC50: 50 µg/mL

## CC1(C)CCC[C@@]2(C)CC[C@](C)(O)CC=C12 [Widdrol]
[1]
  IC50 (concentrations at which IL-4 yields were inhibited by 50%): 4.00 µg/mL

## Cedrenol
[1]
  IC50 (concentrations at which IL-4 yields were inhibited by 50%): 3.34 µg/mL

## Epiglobulol
[1]
  IC50 (concentrations at which IL-4 yields were inhibited by 50%): 1.14 µg/mL

## Santalol
[1]
  IC50 (concentrations at which IL-4 yields were inhibited by 50%): 2.40 µg/mL

## Thujopsenol
[1]
  IC50 (concentrations at which IL-4 yields were inhibited by 50%): 3.60 µg/mL
